Like-named read-outs stand apart in the source and are kept apart here.
What was measured:
HepG2 cells = test: Mitochondria toxicity assay; assay type: cell-based; settings: 7 days
Procedure: Fifty microliters of 2× drug dilutions were added per well in a 96 well plate. […] Ribosomal DNA levels were used to determine specific toxicity to mitochondria or generally cytotoxicity. HepG2 cells (5,000 cells/well at 50 μl) were added to the plate. The plate was incubated at 37° C. in a humidified 5% CO2 atmosphere for 7 days. After incubation, the supernatant was removed and stored for lactic acid quantification, and total DNA was extracted from cells as described in the RNeasy 96 handbook (February 1999), pages 22-23. No DNA digestions were performed, therefore total RNA and DNA were extracted. The extracted DNA was amplified and the change in mitochondrial DNA and ribosomal DNA for each sample was determined. The fold difference in mitochondrial DNA normalized for ribosomal DNA relative to control was calculated. Lactic acid quantification was performed by the D-Lactic Acid/L-Lactic acid test kit (Boehringer Mannheim/R-Biopharm/Roche). The total amount of lactic acid produced for each sample was found as well as the fold change in lactic acid production (% of lactic acid/% of rDNA) as described in the manufacturers instructions.

RSV = test: Antiviral activity, RSV; assay type: cell-based; settings: human respiratory syncytial virus
[1] = system: Human bone marrow cells, CFU-GM; test: Bone marrow toxicity assay, CFU-GM; assay type: cell-based
Procedure: (§1) The culture assays for CFU-GM and BFU-E are performed using a bilayer soft agar or methylcellulose method. Drugs are diluted in tissue culture medium and filtered. After 14 to 18 days at 37° C. in a humidified atmosphere of 5% CO2 in air, colonies of greater than 50 cells are counted using an inverted microscope. The results are presented as the percent inhibition of colony formation in the presence of drug compared to solvent control cultures.

replicon HCV RNA = test: HCV replicon assay (clone not specified); settings: Hepatitis C virus, read-out: EC90 values, range for the replicon clones, range over replicon clones of Table 1
[2] = Cytotoxicity assay (MTS), all cell lines tested; assay type: cell-based; settings: human, bovine, African green monkey, Clone A, Huh7, HepG2, MDBK, PBM, CEM, Vero and MRC-5 cells; summary in text over all cell lines
Procedure: (§2) 50 μl of 2× drug dilutions were added per well in a 96 well plate. Final concentrations of drug ranged from 1 to 100 μM. A “no drug” (media only) control was used to determine the minimum absorbance values and a “cells+media only” control was used for maximum absorbance value. A solvent control was also used. Cells were then added (PBM: 5×10^4 cells/well; CEM: 2.5×10^3 cells/well; Vero, HepG2, Huh-7, and Clone A: 5×10^3 cells/well) and incubated at 37° C. in a humidified 5% CO2 atmosphere for 3-5 days (PBM: 5 days; CEM: 3 days, all others: 4 days). After incubation, 20 μl of MTS dye was added from Cell Titer Aqueous One Solution Cell Proliferation Assay to each well and the plate was re-incubated for 2-4 hours. The absorbance (490 nm) was then read on an ELISA plate reader using the media only/no cell wells as blanks. Percent inhibition was found and used to calculate the CC50.
In contrast is the relative toxicity of 2′-C-methyladenosine.

[3] = Cytotoxicity assay (MTS), Huh7; assay type: cell-based; settings: human, Huh7 cells
Procedure: as §2

[4] = Cytotoxicity assay (MTS), HepG2; assay type: cell-based; settings: human, HepG2 cells
Procedure: as §2

[5] = system: Human bone marrow cells, BFU-E; test: Bone marrow toxicity assay, BFU-E; assay type: cell-based
Procedure: as §1

[6] = Cytotoxicity assay (MTS), CloneA; assay type: cell-based; settings: human, Clone A cells
Procedure: as §2

BVDV = test: (BVDV) yield reduction assay; assay type: cell-based, bovine viral diarrhea virus; settings: for EC90: Bovine viral diarrhea virus isolates and strains
Procedure: Madin-Darby Bovine Kidney (MDBK) cells were grown in Dulbecco's modified eagle medium supplemented with 10% horse serum and 100 μg/ml penicillin-streptomycin. Cells were seeded in a 96-well plate at 5×10^3 cells/well and incubated for 72h at 37° C. in a humidified 5% CO2 atmosphere. Cells were infected with either cytopathic (NADL strain) or noncytopathic (SD-1 strain) BVDV at a virus dilution of 10-2 and incubated for 45 min. Cell monolayers were washed three times with medium. Fresh medium-containing test compounds in dose response concentrations or ribavirin, as a positive control, were added to cultures and medium containing no drug was added to the no-drug controls. After 72h incubation, supernatant was collected and viral RNA was extracted using the QIAmp Viral RNA Mini Kit (Qiagen, CA). Viral load was determined by Q-RT-PCR using primers specific for either NADL or SD-1 (1).

HBV = test: Antiviral activity, HBV; assay type: cell-based; settings: Hepatitis B virus; HBV
[7] = Cytotoxicity assay (MTS), MDBK; assay type: cell-based; settings: bovine, MDBK cells
[8] = system: serum amino transferase levels; settings: Gary L. Davis, 2000; cited from earlier work
HCV replicon system = settings: Stuyver et al. 2003; cited from earlier work

With C[C@@]1(O)[C@H](O)[C@@H](CO)O[C@H]1n1ccc(N)nc1=O [2′-C-methylcytidine] as the compound, how does the “Lactic Acid Increase” value (HepG2 cells) read?
Its value is “No effect ≥ 33 μM”.

And the IC50 (HepG2 cells; Homo sapiens, 168 h, read-out: mtDNA Synthesis (IC50))?
Its IC50 is > 25 µM.

What about the EC90 (RSV) of the same compound?
The EC90 was > 100 µM.

What about the IC50 ([1]; CFU-GM) of the same compound?
Its IC50 is 13.2 µM.

And the EC90 (replicon HCV RNA)?
Its EC90 is 6.6 to 37.4 µM.

What about the CC50 [2] of the same compound?
Its CC50 is 75 to 100 µM.

And the CC50 at 4 days [3]?
The CC50 at 4 days was > 100 µM.

What about the CC50 at 4 days [4] of the same compound?
The CC50 at 4 days was > 100 µM.

And the IC50 ([5]; Bone marrow cell)?
The IC50 was 20.1 µM.

And the CC50 at 4 days [6]?
The CC50 at 4 days was > 100 µM.

What about the “activity on HCV surrogate model BVDV (in words)” value (BVDV) of the same compound?
The value was “greater activity”.

What about the EC90 (BVDV; BVDVcp) of the same compound?
The EC90 was 2 µM.

And the EC90 (BVDV; BVDVncp)?
Its EC90 is 0.5 µM.

What about the EC90 (HBV) of the same compound?
The EC90 was > 10 µM.

And the CC50 at 4 days [7]?
Its CC50 at 4 days is > 100 µM.

What does the source list for Cc1cn([C@H]2C[C@H](N=[N+]=[N-])[C@@H](CO)O2)c(=O)[nH]c1=O [AZT]?
IC50 [1]: 0.95 µM; IC50 [5]: 0.08 µM

With NC(=O)c1ncn([C@@H]2O[C@H](CO)[C@@H](O)[C@H]2O)n1 [Ribavirin, 1-β-D-ribofuranosyl-1-1,2,4-triazole-3-carboxamide] as the compound, how does the “patients with serum amino transferase levels reduced to normal” value [8] read?
Its value is 40%.

And the “specific anti-HCV activity in the HCV replicon system” value (HCV replicon system)?
The value was “does not have specific anti-HCV activity”.
